“Also recorded” adds a separate entry of the source. Read-outs that look alike come from different tables or passages of the source.
Tests used:
[1] = tested on: mouse fibroblasts; settings: Cancer Research, 1975, 35, 1547-1554; cited from earlier work
[2] = tested on: HTLV-III/LAV; assay: HTLV-III/LAV cytopathic effect assay using ATH8 cells (protective effect); format: cell-based, HTLV-IIIB; settings: for protective / anti-HTLV-III activity (in words): in vitro; for protection (in words): 200 micromolar; for doses required for protection (in words): relative to other dideoxy nucleosides / ddC 1
Method: ^a The percentage of protective effect of a nucleoside was determined
by the following formula:
100 × [(number of viable cells exposed to HTLVIII and cultured in
the presence of the nucleoside) - (number of viable cells exposed to
HTLVII I cultured in the absence of the nucleoside)]/[(number of viable
cells cultured alone) - (number of viable cells exposed to HTLVIII in the
absence of the nucleoside)].
(§1) HTLV-III/LAV cytopathic effect assay was performed using ATH8 cells as previously described.* Briefly, 2×10^5 ATH8 cells were exposed to HTLV-IIIB virus (2,000 virus particles/cell) for 45 min after treatment with polybrene, resuspended in 2 ml of culture medium containing interleukin 2 in the presence or absence of various concentrations of compounds, and incubated in culture tubes at 37° C. in 5% CO2 /95% air humidifedd atmosphere. Control cells were treated similarly but were not exposed to the virus. At various time points on days 5 to 7 of culture, the total viable cells were counted in a hemocytometer by the trypan blue dye exclusion method.

[3] = Cytotoxicity to ATH8 cells cultured with the nucleoside (trypan blue viable cell count); format: cell-based; settings: human
Method: (§2) ^b The percentage of cytotoxicity was determined by the following
(§3) 100 × [1 - (number of viable cells cultured in the presence of the
(§4) nucleoside)/(number of viable cells cultured alone)].
as §1

[4] = tested on: ATH8 cells; assay: as above; format: cell-based; settings: in vitro
Method: as §2, §3, §4, §1

[5] = water or body fluids; listed as ddA; cited from earlier work
[6] = tested on: HTLV-III/LAV; settings: in vitro, cited from earlier work
[7] = tested on: HTLV-III/LAV; settings: cited from earlier work
[8] = Basicity and protonation; format: physicochemical; settings: relative to 2',3'-dideoxycytidine
[9] = Penetration of the blood-brain barrier / entry into the central nervous system
[10] = tested on: reverse transcriptase; settings: cited from earlier work
[11] = tested on: T4^+ lymphocytes; settings: 0.5 and 5.0 micromoles; cited from earlier work
[12] = 5 μM, ATH8 cells, read-out: Cytotoxicity (%)
[13] = 10 μM, ATH8 cells, read-out: Cytotoxicity (%)
[14] = 50 μM, ATH8 cells, read-out: Cytotoxicity (%)
[15] = 200 μM, ATH8 cells, read-out: Cytotoxicity (%)
[16] = 0.5 μM, ATH8 cells, read-out: Cytotoxicity (%)

Question: For `Nc1ncnc2c1ncn2[C@H]1CC[C@@H](COP(=O)(O)O)O1` [Compound 25, 2',3'-dideoxyadenosine-5'-phosphate], which “cytotoxicity in mouse fibroblasts (in words)” value [1] is on record?
Answer: The value was “cytotoxic consequences”.

Question: And the “entry into mouse fibroblasts” value [1]?
Answer: Its value is “appeared to enter mouse fibroblasts intact”.

Question: What about the inhibition at 1 µM ([2]; Human immunodeficiency virus 1, ATH-8, 1 μM, ATH8 cells, days 5 to 7) of the same compound?
Answer: Its inhibition at 1 µM is 25%.

Question: And the “protective / anti-HTLV-III activity (in words)” value [2]?
Answer: The value was “just as active as the nucleoside 2, over a wide concentration range”.

Question: What about the “potency of ddAMP relative to ddA (in words)” value ([2]; low concentrations) of the same compound?
Answer: The value was “not more potent at low concentrations”.

Question: And the cytotoxicity at 1 µM ([3]; ATH8 cells)?
Answer: Its cytotoxicity at 1 µM is 2%.

Question: What about the cytotoxicity at 5 µM [3, 12] of the same compound?
Answer: Its cytotoxicity at 5 µM is 10%.

Question: What about the cytotoxicity at 10 µM [3, 13] of the same compound?
Answer: Its cytotoxicity at 10 µM is 6%.

Question: And the cytotoxicity at 50 µM [3, 14]?
Answer: The cytotoxicity at 50 µM was 4%.

Question: And the cytotoxicity at 100 µM ([3]; ATH8 cells)?
Answer: Its cytotoxicity at 100 µM is 0%.

Question: What about the cytotoxicity at 200 µM [3, 15] of the same compound?
Answer: The cytotoxicity at 200 µM was 5%.

Question: With `Cc1cn([C@H]2CC[C@@H](COP(=O)(O)O)O2)c(=O)[nH]c1=O` [Compound 26] as the compound, how does the “protection (in words)” value [2] read?
Answer: Its value is “essentially inactive”.

Question: And the cytotoxicity at 10 µM ([3]; ath8 cells)?
Answer: The cytotoxicity at 10 µM was 9%.

Question: What about the cytotoxicity at 50 µM ([3]; ath8 cells) of the same compound?
Answer: Its cytotoxicity at 50 µM is 9%.

Question: What about the cytotoxicity at 200 µM ([3]; ath8 cells) of the same compound?
Answer: The cytotoxicity at 200 µM was 10%.

Question: For `Nc1nc(=O)n([C@H]2CC[C@@H](CO)O2)cc1Br` [Compound 17, 2',3'-Dideoxy-5-bromocytidine], which “protective / anti-HTLV-III activity (in words)” value [2] is on record?
Answer: Its value is “neither protective nor cytotoxic”.

Question: What about the cytotoxicity at 1 µM ([3]; ATH8 cells) of the same compound?
Answer: Its cytotoxicity at 1 µM is 14%.

Question: What about the cytotoxicity at 10 µM [3, 13] of the same compound?
Answer: Its cytotoxicity at 10 µM is 14%.

Question: What about the cytotoxicity at 30 µM ([3]; 30 μM, ATH8 cells) of the same compound?
Answer: The cytotoxicity at 30 µM was 2%.

Question: What about the cytotoxicity at 200 µM [3, 15] of the same compound?
Answer: Its cytotoxicity at 200 µM is 0%.

Question: And the “cytotoxicity (in words)” value [4]?
Answer: Its value is “neither protective nor cytotoxic”.

Question: What does the source list for `Nc1ncnc2c1ncn2[C@H]1CC[C@@H](CO)O1` [Compound 2]?
Answer: solubility (in words) [5]: relatively insoluble; also recorded: not very soluble in water or body fluids; protection against the cytopathic effects of HTLV-III/LAV (in words) [6]: very effective; cytotoxicity at 1 µM ([3]; ATH8 cells): 0%; cytotoxicity at 5 µM [3, 12]: 6%; cytotoxicity at 10 µM [3, 13]: 0%; cytotoxicity at 50 µM [3, 14]: 0%; cytotoxicity at 100 µM ([3]; ATH8 cells): 0%; cytotoxicity at 200 µM [3, 15]: 0%

Question: For `Cc1cn([C@H]2CC[C@@H](CO)O2)c(=O)[nH]c1=O` [Compound 3, dideoxythymidine], which “protection (in words)” value [2] is on record?
Answer: Its value is “considerable protection”.

Question: And the inhibition at 10 µM ([2]; Human immunodeficiency virus 1, ATH-8, 10 μM, ATH8 cells, days 5 to 7)?
Answer: The inhibition at 10 µM was 3%.

Question: What about the “doses required for protection (in words)” value [2] of the same compound?
Answer: Its value is “unusually high doses”.

Question: What about the cytotoxicity at 10 µM [3, 13] of the same compound?
Answer: Its cytotoxicity at 10 µM is 8%.

Question: What about the cytotoxicity at 50 µM [3, 14] of the same compound?
Answer: The cytotoxicity at 50 µM was 8%.

Question: What about the cytotoxicity at 100 µM ([3]; ATH8 cells) of the same compound?
Answer: Its cytotoxicity at 100 µM is 13%.

Question: And the cytotoxicity at 200 µM [3, 15]?
Answer: Its cytotoxicity at 200 µM is 6%.

Question: What about the cytotoxicity at 500 µM ([3]; 500 μM, ATH8 cells) of the same compound?
Answer: The cytotoxicity at 500 µM was 30%.

Question: What about the cytotoxicity at 1000 µM ([3]; 1000 μM, ATH8 cells) of the same compound?
Answer: Its cytotoxicity at 1000 µM is 40%.

Question: What about the cytotoxicity at 2000 µM ([3]; 2000 μM, ATH8 cells) of the same compound?
Answer: Its cytotoxicity at 2000 µM is 53%.

Question: For `Cc1cn([C@H]2C[C@H](N=[N+]=[N-])[C@@H](CO)O2)c(=O)[nH]c1=O` [AZT, 3-azido-3'-deoxythymidine], which “activity in test systems (in words)” value [7] is on record?
Answer: Its value is “a compound with activity in test systems”.

Question: Which basicity [8] does the source give for `Nc1nc(=O)n([C@H]2CC[C@@H](CO)O2)cc1F` [Compound 22, 2',3'-Dideoxy-5-fluorocytidine] here?
Answer: Its basicity is “less basic than the parent compound”.

Question: What about the protonation [8] of the same compound?
Answer: The protonation was “less protonated than the parent compound”.

Question: And the inhibition at 0.05 µM ([2]; Human immunodeficiency virus 1, ATH-8, 0.05 μM, ATH8 cells, days 5 to 7)?
Answer: The inhibition at 0.05 µM was 5%.

Question: And the “protective / anti-HTLV-III activity (in words)” value [2]?
Answer: The value was “as protective of HTLV-III infected cells as the lead compound 1”.

Question: What about the cytotoxicity at 0.05 µM ([3]; 0.05 μM, ATH8 cells, read-out: Cytotoxicity (%)) of the same compound?
Answer: Its cytotoxicity at 0.05 µM is 5%.

Question: What about the cytotoxicity at 0.5 µM [3, 16] of the same compound?
Answer: Its cytotoxicity at 0.5 µM is 0%.

Question: What about the cytotoxicity at 5 µM [3, 12] of the same compound?
Answer: Its cytotoxicity at 5 µM is 0%.

Question: And the cytotoxicity at 50 µM [3, 14]?
Answer: The cytotoxicity at 50 µM was 9%.

Question: What about the “penetration of the blood-brain barrier / entry into the central nervous system” value [9] of the same compound?
Answer: Its value is “penetrate the blood-brain barrier”.

Question: With `Cc1cn([C@H]2CC[C@@H](CO)O2)c(=O)nc1N` [Compound 15, 2',3'-Dideoxy-5-methylcytidine] as the compound, how does the “protective / anti-HTLV-III activity (in words)” value [2] read?
Answer: Its value is “devoid of protective effects”.

Question: What about the MCC ([3]; ath8 cells, read-out: concentration at which toxicity began to show) of the same compound?
Answer: The MCC was 100 µM.

Question: And the cytotoxicity at 2 µM ([3]; ATH8 cells)?
Answer: The cytotoxicity at 2 µM was 23%.

Question: And the cytotoxicity at 10 µM [3, 13]?
Answer: The cytotoxicity at 10 µM was 27%.

Question: And the cytotoxicity at 100 µM ([3]; ATH8 cells)?
Answer: The cytotoxicity at 100 µM was 44%.

Question: What does the source list for `Nc1ccn([C@H]2CC[C@@H](COP(=O)(O)O)O2)c(=O)n1` [Compound 24]?
Answer: doses required for protection (in words) [2]: significant protection was beginning to be observed at doses approximately ten times higher than were required for activity with ddC 1; cytotoxicity at 0.5 µM [3, 16]: 0%; cytotoxicity at 2 µM ([3]; ATH8 cells): 7%; cytotoxicity at 10 µM [3, 13]: 0%

Question: For `Nc1ncn([C@H]2CC[C@@H](CO)O2)c(=O)n1` [Compound 10, 2',3'-Dideoxy-5-azacytidine], which “anti-HTLV-III activity (in words)” value ([2]; 10 micromolar) is on record?
Answer: Its value is “significant anti-HTLV-III activity”.

Question: And the cytotoxicity at 1 µM ([3]; ATH8 cells)?
Answer: The cytotoxicity at 1 µM was 13%.

Question: What about the cytotoxicity at 10 µM [3, 13] of the same compound?
Answer: The cytotoxicity at 10 µM was 19%.

Question: What about the cytotoxicity at 50 µM [3, 14] of the same compound?
Answer: Its cytotoxicity at 50 µM is 62%.

Question: And the “cytotoxicity (in words)” value [4]?
Answer: The value was “clearly more cytotoxic than ddC”.

Question: Which “inhibition of reverse transcriptase (in words)” value (shortened to “inhibition … (in words)”) [10] does the source give for `NC(=O)c1ncn([C@@H]2O[C@H](CO)[C@@H](O)[C@H]2O)n1` [ribavirin] here?
Answer: Its value is “inhibit this enzyme”.

Question: Which “protective / anti-HTLV-III activity (in words)” value [2] does the source give for `Cc1cn([C@H]2C[C@H](O)[C@@H](CO)O2)c(=O)nc1N` [Compound 16, 5-methyl-2'-deoxycytidine] here?
Answer: The value was “neither protective nor cytotoxic”.

Question: And the “cytotoxicity (in words)” value [4]?
Answer: The value was “neither protective nor cytotoxic”.

Question: For `O=C(O)P(=O)(O)O` [foscarnet], which “inhibition … (in words)” value [10] is on record?
Answer: The value was “inhibit this enzyme”.

Question: Which results are given for `Nc1ccn([C@H]2CC[C@@H](CO)O2)c(=O)n1` [Compound 1, 2',3'-dideoxycytidine]?
Answer: cytotoxicity (in words) [11]: non-cytotoxic; protection against the cytopathic effects of HTLV-III/LAV (in words) [6]: most potent member of the group on the basis of molarity; protection against the cytopathic effects of HTLV-III/LAV (in words) ([6]; listed as ddC): potent protective agent; also recorded: very effective; cytotoxicity at 0.05 µM ([3]; ath8 cells): 0%; cytotoxicity at 0.5 µM ([3]; ath8 cells): 0%; cytotoxicity at 5 µM ([3]; ath8 cells): 0%; cytotoxicity at 50 µM ([3]; ath8 cells): 30%; penetration of the blood-brain barrier / entry into the central nervous system [9]: enter the central nervous system, very poorly

Question: Which “inhibition … (in words)” value [10] does the source give for `Cc1ccc(C(=O)Nc2ccc(S(=O)(=O)O)c3cc(S(=O)(=O)O)cc(S(=O)(=O)O)c23)cc1NC(=O)c1cccc(NC(=O)Nc2cccc(C(=O)Nc3cc(C(=O)Nc4ccc(S(=O)(=O)O)c5cc(S(=O)(=O)O)cc(S(=O)(=O)O)c45)ccc3C)c2)c1` [suramin] here?
Answer: The value was “inhibit this enzyme”.

— US4788181A, “5-substituted-2',3'-dideoxycytidine compounds with anti-HTLV-III activity” (priority 1986, dated 1988)
